{"source": "ChEMBL document CHEMBL1240404", "about": "“Rapamycin protects mice from staphylococcal enterotoxin B-induced toxic shock and blocks cytokine release in vitro and in vivo” (Antimicrob Agents Chemother, 2010)", "key": {"PBMC [1]": {"system": "PBMC", "assay": "cells", "type": "functional", "conditions": "Homo sapiens, 48 h"}, "Mus musculus [2]": {"system": "Mus musculus", "assay": "Inhibition of SEB-induced weight loss in C3H/HeJ mouse assessed as weight gain at 0.7 mg/kg, in administered at 24 hrs after SEB challenge followed by 1.6 mg/kg, ip infusion after 30 to 96 hrs of SEB exposure", "type": "functional, organism-based"}, "Mus musculus [3]": {"system": "Mus musculus", "assay": "Protection against SEB-induced toxicity in C3H/HeJ mouse assessed as survival rate at 1.2 mg/kg, in administered at 2 hrs after SEB challenge followed by 5 mg/kg, ip infusion after 24 to 96 hrs of SEB exposure", "type": "functional"}, "PBMC [4]": {"system": "PBMC", "assay": "cells", "type": "functional", "conditions": "Homo sapiens, 48 h", "remark": "listed apart in the source"}, "Mus musculus [5]": {"system": "Mus musculus", "assay": "Protection against SEB-induced toxicity in C3H/HeJ mouse assessed as survival rate at 0.7 mg/kg, in administered at 2 hrs after SEB challenge followed by 1.6 mg/kg, ip infusion after 24 to 96 hrs of SEB exposure", "type": "functional"}, "Mus musculus [6]": {"system": "Mus musculus", "assay": "Protection against SEB-induced toxicity in C3H/HeJ mouse assessed as survival rate at 0.7 mg/kg, in administered at 3 hrs after SEB challenge followed by 1.6 mg/kg, ip infusion after 24 to 96 hrs of SEB exposure", "type": "functional"}, "PBMC [7]": {"system": "PBMC", "assay": "Inhibition of SEB-induced proliferation of human PBMC at 6.9 ug/ml after 3 hrs by [3H]thymidine incorporation assay", "type": "functional"}, "PBMC [8]": {"system": "PBMC", "assay": "cells", "type": "functional", "conditions": "Homo sapiens, 48 h", "remark": "listed apart in the source"}, "PBMC [9]": {"system": "PBMC", "assay": "cells", "type": "functional", "conditions": "Homo sapiens, 48 h", "remark": "listed apart in the source"}, "Mus musculus [10]": {"system": "Mus musculus", "assay": "Antiinflammatory activity in C3H/HeJ mouse assessed as reduction in SEB-induced increase in serum IL-6 level at 0.7 mg/kg, in after 24 hrs", "type": "functional, organism-based", "parameters": "dose 0.7 mg/kg"}, "[11]": {"assay": "Drug level in C3H/HeJ mouse blood at 0.7 mg/kg, in administered at 2 and 5 hrs followed by 1.6 mg/kg, ip infusion at 30, 48, 72 and 96 hrs measured at 97 hrs", "type": "ADME, organism-based", "conditions": "read-out: Drug uptake"}, "Mus musculus [12]": {"system": "Mus musculus", "assay": "Antiinflammatory activity in C3H/HeJ mouse assessed as reduction in SEB-induced increase in serum IL-6 level at 0.7 mg/kg, in after 51 hrs", "type": "functional, organism-based", "parameters": "dose 0.7 mg/kg"}, "Mus musculus [13]": {"system": "Mus musculus", "assay": "Protection against SEB-induced toxicity in C3H/HeJ mouse assessed as attenuation of hypothermic response at 0.7 mg/kg, in administered at 5 hrs after SEB challenge", "type": "functional, organism-based", "parameters": "dose 0.7 mg/kg"}, "Mus musculus [14]": {"system": "Mus musculus", "assay": "Protection against SEB-induced toxicity in C3H/HeJ mouse assessed as survival rate at 1.2 mg/kg, in administered at 5 hrs after SEB challenge followed by 5 mg/kg, ip infusion after 24 to 96 hrs of SEB exposure", "type": "functional"}, "[15]": {"assay": "Drug level in C3H/HeJ mouse blood at 0.7 mg/kg, in after 1 hr", "type": "ADME, organism-based", "parameters": "dose 0.7 mg/kg", "conditions": "inhaled or intranasal, read-out: Drug uptake"}, "Mus musculus [16]": {"system": "Mus musculus", "assay": "Protection against SEB-induced toxicity in C3H/HeJ mouse assessed as survival rate at 0.7 mg/kg, in administered at 5 hrs after SEB challenge followed by 1.6 mg/kg, ip infusion after 24 to 96 hrs of SEB exposure", "type": "functional"}, "PBMC [17]": {"system": "PBMC", "assay": "cells", "type": "functional", "conditions": "Homo sapiens, 48 h", "remark": "listed apart in the source"}, "Mus musculus [18]": {"system": "Mus musculus", "assay": "Antiinflammatory activity in C3H/HeJ mouse assessed as reduction in SEB-induced increase in serum IL-6 level at 0.7 mg/kg, in after 5 hrs", "type": "functional, organism-based", "parameters": "dose 0.7 mg/kg"}, "Mus musculus [19]": {"system": "Mus musculus", "assay": "Protection against SEB-induced toxicity in C3H/HeJ mouse assessed as appearance of ruffled fur and lethargy at 0.7 mg/kg, in administered at 72 hrs after SEB challenge followed by 1.6 mg/kg, ip infusion after 30 to 96 hrs of SEB exposure", "type": "functional, organism-based"}, "PBMC [20]": {"system": "PBMC", "assay": "Cytotoxicity against human PBMC at 10 ug/ml after 48 hrs by [3H]thymidine incorporation assay", "type": "cell-based"}, "PBMC [21]": {"system": "PBMC", "assay": "cells", "type": "functional", "conditions": "Homo sapiens, 48 h", "remark": "listed apart in the source"}, "Mus musculus [22]": {"system": "Mus musculus", "assay": "Antiinflammatory activity in C3H/HeJ mouse assessed as reduction in SEB-induced increase in serum IL-6 level at 0.7 mg/kg, in after 75 hrs", "type": "functional, organism-based", "parameters": "dose 0.7 mg/kg"}, "PBMC [23]": {"system": "PBMC", "assay": "Inhibition of SEB-induced proliferation of human PBMC at 0.69 ug/ml after 48 hrs by [3H]thymidine incorporation assay", "type": "functional"}, "Mus musculus [24]": {"system": "Mus musculus", "assay": "Protection against SEB-induced toxicity in C3H/HeJ mouse assessed as attenuation of hypothermic response at 0.7 mg/kg, in administered at 24 hrs after SEB challenge followed by 1.6 mg/kg, ip infusion after 30 to 96 hrs of SEB exposure", "type": "functional, organism-based"}, "PBMC [25]": {"system": "PBMC", "assay": "cells", "type": "functional", "conditions": "Homo sapiens, 48 h", "remark": "listed apart in the source"}, "Mus musculus [26]": {"system": "Mus musculus", "assay": "Inhibition of SEB-induced weight loss in C3H/HeJ mouse assessed as weight gain at 0.7 mg/kg, in measured after 150 hrs of SEB challenge", "type": "functional"}, "PBMC [27]": {"system": "PBMC", "assay": "Inhibition of SEB-induced proliferation of human PBMC at 6.9 ug/ml after 48 hrs by [3H]thymidine incorporation assay", "type": "functional"}, "Mus musculus [28]": {"system": "Mus musculus", "assay": "Protection against SEB-induced toxicity in C3H/HeJ mouse assessed as attenuation of hypothermic response at 0.7 mg/kg, in administered at 42 hrs after SEB challenge followed by 1.6 mg/kg, ip infusion after 30 to 96 hrs of SEB exposure", "type": "functional"}, "PBMC [29]": {"system": "PBMC", "assay": "Inhibition of SEB-induced proliferation of human PBMC after 48 hrs by [3H]thymidine incorporation assay", "type": "functional, cell-based"}, "[30]": {"assay": "Drug level in C3H/HeJ mouse blood at 0.03 mg/kg, in administered at 2 and 5 hrs followed by 0.08 mg/kg, ip infusion at 30, 48, 72 and 96 hrs measured at 97 hrs", "type": "ADME, organism-based", "conditions": "read-out: Drug uptake"}, "Mus musculus [31]": {"system": "Mus musculus", "assay": "Protection against SEB-induced toxicity in C3H/HeJ mouse assessed as survival rate at 0.7 mg/kg, in administered at 4 hrs after SEB challenge followed by 1.6 mg/kg, ip infusion after 24 to 96 hrs of SEB exposure", "type": "functional"}, "Mus musculus [32]": {"system": "Mus musculus", "assay": "Protection against SEB-induced toxicity in C3H/HeJ mouse assessed as lethality at 1.2 mg/kg, in administered at 5 hrs after SEB challenge followed by 5 mg/kg, ip infusion after 24 to 96 hrs of SEB exposure", "type": "functional"}}, "note": "Active and inactive are the calls of the source. The rule behind the calls is not given here."}
{"compound": "CO[C@H]1C[C@@H]2CC[C@@H](C)[C@@](O)(O2)C(=O)C(=O)N2CCCC[C@H]2C(=O)O[C@H]([C@H](C)C[C@@H]2CC[C@@H](O)[C@H](OC)C2)CC(=O)[C@H](C)/C=C(\\C)[C@@H](O)[C@@H](OC)C(=O)[C@H](C)C[C@H](C)/C=C/C=C/C=C/1C", "note": "[SIROLIMUS]", "values": [{"measurement": "inhibition at 0.0069 µg/mL", "setting": "PBMC [1]", "result": 34, "unit": "%"}, {"measurement": "inhibition", "setting": "Mus musculus [2]", "result": "Active"}, {"measurement": "Activity", "setting": "Mus musculus [3]", "result": 100, "unit": "%"}, {"measurement": "inhibition at 6.9 µg/mL", "setting": "PBMC [4]", "result": 100, "unit": "%"}, {"measurement": "Activity", "setting": "Mus musculus [5]", "result": 100, "unit": "%"}, {"measurement": "Activity", "setting": "Mus musculus [6]", "result": 100, "unit": "%"}, {"measurement": "inhibition at 6.9 µg/mL", "setting": "PBMC [7]", "result": 40, "unit": "%"}, {"measurement": "inhibition at 6.9 µg/mL", "setting": "PBMC [8]", "result": 77, "unit": "%"}, {"measurement": "inhibition at 0.0069 µg/mL", "setting": "PBMC [9]", "result": 36, "unit": "%"}, {"measurement": "inhibition", "setting": "Mus musculus [10]", "result": "Active"}, {"measurement": "concentration at 97 h", "setting": "[11]", "result": 622, "unit": "ng/mL"}, {"measurement": "inhibition", "setting": "Mus musculus [12]", "result": "Active"}, {"measurement": "Activity", "setting": "Mus musculus [13]", "result": "Active"}, {"measurement": "Activity", "setting": "Mus musculus [14]", "result": 10, "unit": "%"}, {"measurement": "concentration at 1 h", "setting": "[15]", "result": 492, "unit": "ng/mL"}, {"measurement": "Activity", "setting": "Mus musculus [16]", "result": 100, "unit": "%"}, {"measurement": "inhibition at 6.9 µg/mL", "setting": "PBMC [17]", "result": 100, "unit": "%"}, {"measurement": "inhibition", "setting": "Mus musculus [18]", "result": "inactive"}, {"measurement": "Activity", "setting": "Mus musculus [19]", "result": "Active"}, {"measurement": "Activity", "setting": "PBMC [20]", "result": "Non-toxic"}, {"measurement": "inhibition at 6.9 µg/mL", "setting": "PBMC [21]", "result": 67, "unit": "%"}, {"measurement": "inhibition", "setting": "Mus musculus [22]", "result": "Active"}, {"measurement": "inhibition at 0.69 µg/mL", "setting": "PBMC [23]", "result": 56, "unit": "%"}, {"measurement": "Activity", "setting": "Mus musculus [24]", "result": "Active"}, {"measurement": "inhibition at 6.9 µg/mL", "setting": "PBMC [25]", "result": 97, "unit": "%"}, {"measurement": "inhibition in vivo at 0.7 mg/kg", "setting": "Mus musculus [26]", "result": 8, "unit": "%"}, {"measurement": "inhibition at 6.9 µg/mL", "setting": "PBMC [27]", "result": 94, "unit": "%"}, {"measurement": "Activity", "setting": "Mus musculus [28]", "result": 20, "unit": "%"}, {"measurement": "inhibition", "setting": "PBMC [29]", "result": "Dose-dependent effect"}, {"measurement": "concentration at 97 h", "setting": "[30]", "result": 38, "unit": "ng/mL"}, {"measurement": "Activity", "setting": "Mus musculus [31]", "result": 100, "unit": "%"}]}
{"compound": "C[C@@H]1C[C@H]2[C@@H]3CCC4=CC(=O)C=C[C@]4(C)[C@@]3(F)[C@@H](O)C[C@]2(C)[C@@]1(O)C(=O)CO", "note": "[DEXAMETHASONE]", "values": [{"measurement": "Activity", "setting": "Mus musculus [32]", "result": 90, "unit": "%"}]}
